Reference: US9265736B2, “Treatment of cardiovascular disease and thrombosis” (THE CLEVELAND CLINIC FOUNDATION, priority 2011, dated 2016)
“Also recorded” adds a separate entry of the source.

Tests used:
wild-type mice = assay: Carotid artery in vivo thrombosis rate by vital microscopy, wild-type mice
Method: This example repeats the study immediately above, excepts uses wild-type mice. The results are shown FIG. 14.
Carotid artery in vivo thrombosis rates were determined using vital microscopy on the indicated groups of mice shown in FIG. 15. Mice were on the indicated diets +/− ABS or DMB for 3 weeks.

peritoneal macrophages [1] = assay: Macrophage cholesterol accumulation in mice on supplemented chow (Example 1); assay type: in vivo, C57BL/6J.Apoe−/− mice; conditions: normal chow supplemented with choline (1.0%), TMAO (0.12%) or DMB (1.0%) vs normal chow
Method: Male C57BL/6J.Apoe−/− mice (15 week old) were placed on normal chow (control) alone or supplemented in the presence of either choline (1.0%), TMAO (0.12%), or DMB (1.0%). Peritoneal macrophages were recovered from the indicated number of mice at 20 weeks of age and cellular cholesterol content was quantified by stable isotope dilution GC/MS, and normalized to DNA content. (b) Schematic illustration of overall pathway.
(§1) Experiments were conducted during development of embodiments of the present invention to examine the structural specificity of phaophatidylcholine metabolites in promoting a pro-atherogenic macrophage phenotype as monitored by endogenous foam cell formation. C57BL/6J.Apoe−/− mice at time of weaning were placed on either normal chow diet (control) or normal chow supplemented with either choline, TMAO or the choline analog DMB, where the quaternary amine nitrogen of choline is replaced with a carbon (SEE FIG. 2, right). Thus, DMB is structurally identical to choline except there is no C—N bond for potential cleavage and TMA formation by gut flora.

Peritoneal macrophages [2] = assay: Cholesterol accumulation and foam cell formation, oil red O staining of peritoneal macrophages (Example 4); assay type: in vivo, C57BL/6J.Apoe−/− male mice; conditions: chow with 1.3% choline and 1.3% DMB
Method: Experiments were conducted during development of embodiments of the present invention to examine the effect of addition of DMB on cholesterol accumulation and foam cell formation. C57BL/6J.Apoe−/− male mice at the time of weaning (4 weeks) were placed on chow diet supplemented with 1.3% choline, 1.3% DMB, both, or neither. Peritoneal macrophages were collected, fixed in 4% paraformaldehyde and stained with oil red 0/hematoxin. Addition of DMB reversed the high choline diet induced cholesterol accumulation and foam cell formation (SEE FIG. 6).

platelets = assay: Ex vivo platelet aggregation triggered by ADP (Example 7); assay type: in vivo, mice
Method: In this example, mice were placed on either normal chow diet at time of weaning, or a high choline diet. After several weeks, whole blood was removed, and platelets isolated. The ability of a submaximal agonist of platelets, ADP, to trigger platelet aggregation was then determined. In parallel, plasma levels of TMAO were determined by established stable isotope dilution LC/MS/MS analyses. […] This is a clear signal of a pro-thrombotic phenotype in the mice on a high choline diet. In a similar study, the mice on the high choline were also placed on a cocktail of broad spectrum antibiotics (described above and in Wang et al., Nature 2011, April, 472(7341):57-63, incorporated by reference it its entirety for all purposes) to suppress intestinal microflora, and reduce plasma TMAO levels. […] Such drugs (e.g., DMB or antibiotics) are attractive since they should not induce excess bleeding (e.g., like commercial anti-thrombotic drugs like clopidogrel or Warfarin). That is, TMAO only accentuates platelet function, and reducing TMAO levels (like with DMB, antibiotic, or some other drug or approach, be it functional food, probiotic, or prebiotic) would decrease in vivo thrombosis, but not reduce below “normal” function, and thus not increase bleeding risk. […]

[3] = tested on: C57BL/6J.Apoe−/− male mice; assay: Aortic root lesion / atherosclerotic plaque, oil red O staining (Example 2); assay type: in vivo
Text: C57BL/6J.Apoe−/− male mice at the time of weaning (4 weeks) were placed on chow diet supplemented with 1.3% choline, 1.3% DMB, both, or neither. Aortic root section was stained with oil red 0/hematoxin. The red oil staining area inside the aorta indicates lesion plaque (SEE FIGS. 3 and 4).

[4] = Plasma TMAO in mice on supplemented chow (Example 1); assay type: in vivo, C57BL/6J.Apoe−/− mice; conditions: normal chow supplemented with choline, TMAO or DMB vs normal chow
Method: as §1

[5] = Plasma lipoprotein profile (Example 3); assay type: in vivo, mice; conditions: 1.3% DMB added to mouse diet
Method: Experiments were conducted during development of embodiments of the present invention to compare plasma levels of (1) cholesterol, (2) triglyceride, low density lipoprotein-cholesterol, and HDL cholesterol in mice fed chow, or chow supplemented with 1.3% choline, 1.3% DMB, or both (SEE FIG. 5).

[6] = tested on: peritoneal mouse macrophages; assay: Total cholesterol in peritoneal macrophages by stable isotope dilution LC/MS/MS (Example 5); assay type: in vivo, C57BL/6J.Apoe−/− male mice; conditions: chow with 1.3% choline and 1.3% DMB
Method: Experiments were conducted during development of embodiments of the present invention to determine the effect of DMB on total cholesterol level in peritoneal mouse macrophages (SEE FIG. 7). C57BL/6J.Apoe−/− male mice at the time of weaning (4 weeks) were placed on chow diet supplemented with 1.3% choline, 1.3% DMB, both, or neither. The total cholesterol of cells was quantified by stable isotope dilution LC/MS/MS. Cells number was quantified by protein content in cell lysates.

intestinal microflora = assay: Intestinal microflora-catalyzed generation of trimethylamine from choline, cecum homogenate (Example 6); assay type: biochemical; conditions: D9-choline substrate, mouse cecum homogenate
Method: Experiments were conducted during development of embodiments of the present invention to examine the effect of DMB on intestinal microflora-catalyzed generation of trimethylamine from choline. Mouse celum was homogenized as a source of intestinal microflora. D9-choline was used as a substrate and the generation of […] was quantificed by stable isotope dilution LC/MS/MS.

[7] = Plasma TMA and TMAO by stable isotope dilution LC/MS/MS in mice on diets (Example 7); assay type: in vivo
Method: Six week old female mice were placed on the indicated diets +/− shown in FIG. 9, including Chow, CHOW+ antibiotics (ABS; which was 0.5 g/L vancomycin, 1 g/L neomycin sulfate, 1 g/L metronidazole, and 1 g/L ampicillin), TMAO, CH (chow supplemented with 1.0% wt/wt choline), CH and ABS, and CH+DMB. Mice were placed on these diets at 6 weeks of age and maintained on the diets for 3 weeks. Plasma was then recovered and both TMA and TMAO were determined by stable isotope dilution LC/MS/MS. Note that a diet rich in choline (similar to a Western diet) leads to increases in plasma TMA and TMAO levels.
In this example, mice were placed on either normal chow diet at time of weaning, or a high choline diet. After several weeks, whole blood was removed, and platelets isolated. The ability of a submaximal agonist of platelets, ADP, to trigger platelet aggregation was then determined. In parallel, plasma levels of TMAO were determined by established stable isotope dilution LC/MS/MS analyses. […] This is a clear signal of a pro-thrombotic phenotype in the mice on a high choline diet. In a similar study, the mice on the high choline were also placed on a cocktail of broad spectrum antibiotics (described above and in Wang et al., Nature 2011, April, 472(7341):57-63, incorporated by reference it its entirety for all purposes) to suppress intestinal microflora, and reduce plasma TMAO levels. […] Such drugs (e.g., DMB or antibiotics) are attractive since they should not induce excess bleeding (e.g., like commercial anti-thrombotic drugs like clopidogrel or Warfarin). That is, TMAO only accentuates platelet function, and reducing TMAO levels (like with DMB, antibiotic, or some other drug or approach, be it functional food, probiotic, or prebiotic) would decrease in vivo thrombosis, but not reduce below “normal” function, and thus not increase bleeding risk.

ApoE−/− mice = assay: Carotid artery in vivo thrombosis rate by vital microscopy, ApoE−/− mice; conditions: diet high in choline or supplemented with TMAO, 3 weeks
Method: In this example, carotid artery in vivo thrombosis rates were determined using vital microscopy on the indicated groups of mice in FIG. 13. Mice were on the indicated diets +/− ABS for 3 weeks.
These studies extend to in vivo studies what was seen before with ex vivo platelet aggregation studies from mice on the various indicated diets. […] A shorter time indicates faster platelet aggregation (enhanced in vivo thrombosis).

[8] = female mice, diets for 3 weeks, ABS or DMB added (high choline diet)

Compound | change in in vivo thrombosis rates seen on a high choline diet (wild-type mice; WT mice, high choline diet plus ABS or DMB, 3 weeks) | macrophage cholesterol content (peritoneal macrophages [1]) | high choline diet induced cholesterol accumulation and foam cell formation (Peritoneal macrophages [2]) | choline diet induced platelet hyperresponsiveness (aggregation) (platelets; high choline diet plus antibiotics or DMB) | reduction of aortic plaque formation ([3]; 1.3% DMB added to normal chow diet, from weaning (4 weeks)) [%] | increases in atherosclerotic plaque induced by the high choline diet ([3]; chow supplemented with 1.3% choline and 1.3% DMB) | plasma levels of TMAO [4] | plasma HDL cholesterol [5] | plasma low density lipoprotein-cholesterol [5] | plasma total cholesterol [5] | plasma triglyceride [5] | high choline diet induced increase in macrophage cholesterol content [6] | gut flora-mediated catabolism of choline to TMA (intestinal microflora) | diet induced TMAO levels ([7]; WT thrombosis study, high choline diet plus ABS or DMB, 3 weeks) | plasma TMA formation [7, 8] | plasma TMAO formation [7, 8] | plasma TMAO formation ([7]; platelet study, high choline diet plus antibiotics or DMB) | in vivo thrombosis rates (wild-type mice; wild-type mice, absence of dyslipidemia) | platelet aggregation responses to ADP (platelets; diet supplemented with choline or TMAO vs normal chow) | in vivo thrombosis rates (time to cessation of blood flow in the carotid artery) (ApoE−/− mice)
CC(C)(C)CCO [DMB, 3,3-dimethyl-1-butanol] | block the reduction in in vivo thrombosis rates seen on a high choline diet | no increased accumulation | reversed | markedly reduces platelet hyperresponsiveness; also recorded: blocks platelet hyper-responsiveness | ~90 | blocks the diet-induced enhanced atherosclerosis | no TMAO increase | increase | significant reductions | significant reductions | significant reductions | blocked | markedly inhibited | block TMAO levels | inhibits | inhibits | inhibits TMAO formation |  |  | 
C[N+](C)(C)[O-] [TMAO, trimethylamine N-oxide, reference compound] |  | increased |  |  |  |  | elevated |  |  |  |  |  |  |  |  |  |  | enhances in vivo thrombosis rates | promotes enhanced platelet aggregation | promotes accelerated in vivo thrombosis rates
